Assay type in all cases: functional
Experiment [1] relates to Rattus norvegicus. Nature of the experiment: Hepatoprotective activity against thioacetamide-induced toxicity in various levels of serum GPT in rats was evaluated at 10 mg/kg dose (p.o. x 7 days).
The species named for experiment [2] is Rattus norvegicus. Nature of the experiment: Percent protection afforded by the compound in serum alkaline phosphatase (APL) level was determined. Further details: concentration or dose not given beside the values.
The species entered for experiment [3] is Rattus norvegicus. As to the kind of experiment: Percent protection afforded by the compound in serum glutamate oxaloacetate transaminase (GOT) level was determined. Further details: concentration or dose not given beside the values.
Experiment [4] relates to Rattus norvegicus. As to the kind of experiment: Hepatoprotective activity against thioacetamide-induced toxicity in various levels of serum ALP in rats was evaluated at 10 mg/kg dose (p.o. x 7 days).
The species named for experiment [5] is Rattus norvegicus. As to the kind of experiment: Percent protection afforded by the compound in serum glutamate pyruvate transaminase (GPT) level was determined. Further details: concentration or dose not given beside the values.
The test system of experiment [6] is Rattus norvegicus. Nature of the experiment: Hepatoprotective activity against thioacetamide-induced toxicity in various levels of serum GOT in rats was evaluated at 10 mg/kg dose (p.o. x 7 days).

The source of these data is ChEMBL document CHEMBL1131277, “Functionalized 1,3-teraryls as a new class of hepatoprotectants. Part V” (1998).

For the compound `COC(=O)c1c(SC)cc(-c2ccc(Cl)cc2)cc1-c1ccc(Cl)c(Cl)c1`, the Enzyme level was found to be 258.1 U l-1 in the experiment with Rattus norvegicus [1] (route oral), 245.1 U l-1 in the experiment with Rattus norvegicus [4] (route oral) and 147.3 U l-1 in the experiment with Rattus norvegicus [6] (route oral). In addition, the Protection in the experiment filed under Rattus norvegicus [2] turned out to be 42%; in the experiment filed under Rattus norvegicus [3], 66%; in the experiment listed under Rattus norvegicus [5] it was 49%.
Regarding `COC(=O)c1c(SC)cc(-c2ccc(F)cc2)cc1-c1ccc(Cl)c(Cl)c1`, the values for the Enzyme level in the experiment on Rattus norvegicus [1] (route oral), with Rattus norvegicus [4] (route oral) and with Rattus norvegicus [6] (route oral) were 186.3 U l-1, 235.5 U l-1 and 159.3 U l-1, respectively. Moreover, the Protection in the experiment listed under Rattus norvegicus [2] is given as 46%; in the experiment filed under Rattus norvegicus [3], 57%; in the experiment filed under Rattus norvegicus [5] it was 71%.
For the compound `COC(=O)c1c(SC)cc(-c2ccc(Br)cc2)cc1-c1ccc(Br)cc1`, the Enzyme level with Rattus norvegicus [1] (route oral) was 295.4 U l-1; in the experiment on Rattus norvegicus [4] (route oral) it was 324.2 U l-1; in the experiment on Rattus norvegicus [6] (route oral), 202.1 U l-1. For the same compound, the Protection in the experiment listed under Rattus norvegicus [2] turned out to be 10%; in the experiment filed under Rattus norvegicus [3] it was 25%; in the experiment listed under Rattus norvegicus [5], 36%.
Consider `COC(=O)c1c(SC)cc(-c2ccc(Cl)cc2)cc1-c1ccc(F)cc1`, for which the Enzyme level in the experiment on Rattus norvegicus [1] (route oral) turned out to be 392.3 U l-1; in the experiment on Rattus norvegicus [4] (route oral), 334.2 U l-1; in the experiment on Rattus norvegicus [6] (route oral), 222.3 U l-1. The Protection came out at 6% in the experiment listed under Rattus norvegicus [2], 10% in the experiment filed under Rattus norvegicus [3] and 5% in the experiment filed under Rattus norvegicus [5].
For `COC(=O)c1c(SC)cc(-c2ccc(Cl)cc2)cc1-c1ccc(Cl)cc1`, the Enzyme level in the experiment with Rattus norvegicus [1] (route oral) came to 248.5 U l-1; in the experiment with Rattus norvegicus [4] (route oral), 268.2 U l-1; in the experiment on Rattus norvegicus [6] (route oral) it was 186.3 U l-1. The Protection in the experiment listed under Rattus norvegicus [2] turned out to be 33%; in the experiment filed under Rattus norvegicus [3], 37%; in the experiment filed under Rattus norvegicus [5], 51%.
On to `COC(=O)c1c(SC)cc(-c2ccc(Cl)cc2)cc1-c1ccc([N+](=O)[O-])cc1`, for which the Enzyme level with Rattus norvegicus [1] (route oral) is given as 270.4 U l-1; with Rattus norvegicus [4] (route oral), 289.9 U l-1; in the experiment on Rattus norvegicus [6] (route oral), 229.4 U l-1. Moreover, the Protection in the experiment filed under Rattus norvegicus [2] was found to be 24%; in the experiment filed under Rattus norvegicus [3] it was 5%; in the experiment listed under Rattus norvegicus [5], 44%.
`COC(=O)c1c(SC)cc(-c2ccc(F)c(Cl)c2)cc1-c1cccc([N+](=O)[O-])c1`: the values for the Enzyme level in the experiment with Rattus norvegicus [1] (route oral), with Rattus norvegicus [4] (route oral) and in the experiment on Rattus norvegicus [6] (route oral) were 370.2 U l-1, 304.1 U l-1 and 211.6 U l-1, respectively. Besides, the Protection in the experiment listed under Rattus norvegicus [2] worked out at 18%; in the experiment filed under Rattus norvegicus [3], 18%; in the experiment filed under Rattus norvegicus [5], 12%.
For the compound `COC(=O)c1c(SC)cc(-c2ccc(F)cc2)cc1-c1cccc([N+](=O)[O-])c1`, the Enzyme level in the experiment with Rattus norvegicus [1] (route oral) worked out at 360.1 U l-1; in the experiment with Rattus norvegicus [4] (route oral), 307.2 U l-1; in the experiment on Rattus norvegicus [6] (route oral), 208.9 U l-1. Moreover, the values for the Protection in the experiment listed under Rattus norvegicus [2], in the experiment filed under Rattus norvegicus [3] and in the experiment filed under Rattus norvegicus [5] were 17%, 20% and 15%, respectively.
Consider `COC(=O)c1c(SC)cc(-c2ccc(Cl)cc2)cc1-c1cccc([N+](=O)[O-])c1`, for which the Enzyme level in the experiment on Rattus norvegicus [1] (route oral) is on record as 190.1 U l-1; in the experiment on Rattus norvegicus [4] (route oral), 203.6 U l-1; in the experiment with Rattus norvegicus [6] (route oral), 149.9 U l-1. The Protection in the experiment listed under Rattus norvegicus [2] came to 60%; in the experiment listed under Rattus norvegicus [3], 64%; in the experiment filed under Rattus norvegicus [5], 70%.
In the case of `COC(=O)c1c(SC)cc(-c2ccc(Cl)cc2)cc1-c1ccc(Br)cc1`, the Enzyme level is listed as 361.5 U l-1 in the experiment with Rattus norvegicus [1] (route oral), 330.2 U l-1 in the experiment on Rattus norvegicus [4] (route oral) and 208.3 U l-1 with Rattus norvegicus [6] (route oral). Also, the Protection in the experiment listed under Rattus norvegicus [2] is listed as 8%; in the experiment listed under Rattus norvegicus [3], 20%; in the experiment filed under Rattus norvegicus [5] it was 15%.
On to `COC(=O)c1c(SC)cc(-c2ccc(F)cc2)cc1-c1ccc(F)cc1`, for which the values for the Enzyme level in the experiment on Rattus norvegicus [1] (route oral), in the experiment with Rattus norvegicus [4] (route oral) and in the experiment with Rattus norvegicus [6] (route oral) were 370.2 U l-1, 341.2 U l-1 and 229.1 U l-1, respectively. Further, the results for the Protection in the experiment filed under Rattus norvegicus [2], in the experiment listed under Rattus norvegicus [3] and in the experiment listed under Rattus norvegicus [5] were 3%, 5% and 12%, respectively.
Consider SILYMARIN, for which the Enzyme level in the experiment with Rattus norvegicus [1] was determined as 218 U l-1; in the experiment on Rattus norvegicus [4], 220 U l-1; in the experiment on Rattus norvegicus [6], 150 U l-1. For the same compound, the figures for the Protection in the experiment filed under Rattus norvegicus [2], in the experiment listed under Rattus norvegicus [3] and in the experiment listed under Rattus norvegicus [5] were 52%, 64% and 61%, respectively.
